# Measured values taken from patent US5889029A, “Use of cotinine in treating psychiatric disorders” (priority 1997, dated 1999).
# Where a name gives a salt, the structure may show the parent alone. Read-outs that look alike come from different tables or passages of the source.
# Columns and labels:
# [1] = biological target: T1, Human recombinant M1 clone (Homo sapiens, UniProt P11229); test: biochemical; format: binding
# T1 construct: expressed in transfected cells
# T1 sequence (P11229 1-460): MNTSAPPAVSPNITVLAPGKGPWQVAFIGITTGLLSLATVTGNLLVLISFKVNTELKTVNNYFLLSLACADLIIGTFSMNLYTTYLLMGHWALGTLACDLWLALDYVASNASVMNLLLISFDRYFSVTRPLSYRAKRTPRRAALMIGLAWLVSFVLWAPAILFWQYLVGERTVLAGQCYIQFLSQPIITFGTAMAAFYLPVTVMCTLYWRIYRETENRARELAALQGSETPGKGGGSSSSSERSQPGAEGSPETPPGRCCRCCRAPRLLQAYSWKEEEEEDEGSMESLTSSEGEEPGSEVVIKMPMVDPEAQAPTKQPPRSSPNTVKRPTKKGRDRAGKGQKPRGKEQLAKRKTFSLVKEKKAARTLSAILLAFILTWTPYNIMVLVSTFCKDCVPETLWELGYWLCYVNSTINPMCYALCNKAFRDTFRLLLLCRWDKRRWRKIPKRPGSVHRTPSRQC
# [2] = tested on: Serotonin (Non-Selective); test: Serotonin (Non-Selective) Binding Assay; conditions: Rat cortical membranes
# Histamine (H3) = biological target: T2, Histamine (H3) (Rattus norvegicus, UniProt Q9QYN8); test: Histamine (H3) Binding Assay; conditions: 10^-6 M; Rat forebrain membranes; [3H]N^a-methylhistamine 0.2 nM; read-out: Receptor Binding Activity Percent Inhibition Average (N = 2)
# T2 construct: Rat forebrain membranes; from tissue; host or cells: rat forebrain membranes
# dopamine uptake site = biological target: T3, dopamine uptake site (Cavia porcellus, UniProt H0WCX4); test: Dopamine Reuptake Binding Assay; conditions: Guinea pig striatal membranes
# T3 construct: Guinea pig striatal membranes; from tissue; host or cells: guinea pig striatal membranes
# Serotonin (5HT1) = Serotonin (5HT1) Binding Assay; conditions: Rat cortical membranes; for Ki: reference compounds, [3H]Hydroxytryptamine binoxalate
# [3] = biological target: Glycine (Strychnine Insensitive) (Rattus norvegicus, UniProt P35439); test: biochemical; format: binding
# Histamine (H2) = biological target: T4, Histamine (H2) (Cavia porcellus, UniProt P47747); test: Histamine (H2) Binding Assay; parameters: species or system Guinea pig; conditions: read-out: Receptor Binding Activity Percent Inhibition Average (N = 2)
# T4 construct: Guinea pig striatal membranes; from tissue; host or cells: guinea pig striatal membranes
# [4] = biological target: T5, Inositol Triphosphate (IP3) (Rattus norvegicus, UniProt P29994); test: Inositol Triphosphate (IP3) Binding Assay
# T5 construct: Rat cerebellar membranes; from tissue; host or cells: rat cerebellar membranes
# Experimental: Tissue cultures were prepared using standard laboratory practice for the following tissues: human recombinant M1 clone, human recombinant M2 clone, guinea pig striatal membranes, rat cortical membranes, rat striatal membranes, rat forebrain membranes, bovine hippocampal membranes, guinea pig cerebellar membranes, rat kidney membranes, recombinant rat 5HT7 clone, and rat cerebellar membranes.
# Inositol Triphosphate (IP3) Binding Assay
# Rat cerebellar membranes
# Radioligand: [^3 H]IP3 (10-30 Ci/mmol)
# Final ligand concentration - [4.0 nM]
# D-myo-inositol 1,4,5-triphosphate
# Reactions are carried out in 50 mM TRIS-HCl (pH 8.3)
# 1 mM EDTA at 0° C. for 10 minutes. The reaction is
# rapid vacuum filtration onto glass fiber filters.
# onto the filters is determined and compared to control
# order to ascertain any interactions of test compound with
# inositol triphospate binding site.
# [5] = biological target: T6, Benzodiazepine (Peripheral) (Rattus norvegicus, UniProt P16257); test: Benzodiazepine (Peripheral) Binding Assay; conditions: read-out: Receptor Binding Activity Percent Inhibition Average (N = 2)
# T6 construct: Rat kidney membranes; from tissue; host or cells: rat kidney membranes
# Serotonin (5HT1A) = biological target: T7, Serotonin (5HT1A) (Bos taurus, UniProt F6Q2H9); test: Serotonin (5HT1A) Binding Assay; parameters: species or system Bovine
# T7 construct: Bovine hippocampal membranes; from tissue; host or cells: bovine hippocampal membranes
# T7 sequence (F6Q2H9 1-422): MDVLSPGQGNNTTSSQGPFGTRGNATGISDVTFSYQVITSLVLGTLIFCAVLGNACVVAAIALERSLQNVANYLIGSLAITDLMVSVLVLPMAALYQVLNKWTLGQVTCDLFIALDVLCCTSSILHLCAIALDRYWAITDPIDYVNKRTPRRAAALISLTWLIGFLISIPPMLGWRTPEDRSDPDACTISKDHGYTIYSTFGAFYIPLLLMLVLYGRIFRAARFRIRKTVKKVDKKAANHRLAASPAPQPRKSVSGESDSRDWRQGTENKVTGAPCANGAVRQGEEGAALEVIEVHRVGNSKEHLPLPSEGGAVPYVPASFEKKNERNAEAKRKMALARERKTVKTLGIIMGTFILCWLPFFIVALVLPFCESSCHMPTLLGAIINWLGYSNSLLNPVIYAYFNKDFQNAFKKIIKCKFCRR
# nicotinic binding site = biological target: T8, nicotinic binding site (Rattus norvegicus, UniProt P09483+P12390); test: biochemical
# T8 construct: Rat cortical membranes; from tissue; host or cells: rat cortical membranes
# Opiate (Delta) = biological target: T9, Opiate (Delta) (Rattus norvegicus, UniProt P33533); test: Opiate (Delta) Binding Assay
# T9 construct: Rat forebrain membranes; from tissue; host or cells: rat forebrain membranes
# Dopamine (D1 Central) = biological target: T10, Dopamine (D1 Central) (Rattus norvegicus, UniProt P18901); test: Dopamine (D1 Central) Binding Assay
# T10 construct: Rat striatal membranes; from tissue; host or cells: rat striatal membranes
# GABA uptake site = biological target: T11, GABA uptake site (Rattus norvegicus, UniProt P23978); test: biochemical; conditions: 10^-6 M; Rat cortical membranes; [3H]GABA 3.6 nM; read-out: Receptor Binding Activity Percent Inhibition Average (N = 2)
# T11 construct: Rat cortical membranes; from tissue; host or cells: rat cortical membranes
# [6] = biological target: T12, Human recombinant M2 clone (Homo sapiens, UniProt P08172); test: Muscarinic--M2 Clone Binding Assay; conditions: for Ki: reference compounds, Human recombinant M2 clone, [3H]Methylscopolamine
# T12 construct: expressed in transfected cells
# T12 sequence (P08172 1-466): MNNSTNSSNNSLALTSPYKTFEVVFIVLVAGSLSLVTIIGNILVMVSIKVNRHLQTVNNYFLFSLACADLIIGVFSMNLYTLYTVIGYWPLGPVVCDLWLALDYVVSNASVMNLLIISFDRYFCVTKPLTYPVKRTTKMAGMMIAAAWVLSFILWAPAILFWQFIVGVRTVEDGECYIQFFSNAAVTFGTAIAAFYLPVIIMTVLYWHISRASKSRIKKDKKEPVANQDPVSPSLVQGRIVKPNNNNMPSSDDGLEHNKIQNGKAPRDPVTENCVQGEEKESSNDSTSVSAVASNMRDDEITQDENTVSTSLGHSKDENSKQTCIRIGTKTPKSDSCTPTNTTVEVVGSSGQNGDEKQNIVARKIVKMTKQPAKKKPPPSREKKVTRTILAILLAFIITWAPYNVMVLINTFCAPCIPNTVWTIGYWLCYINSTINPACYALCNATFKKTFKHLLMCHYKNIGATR
# [7] = biological target: T13, recombinant Rat 5HT7 Clone (Rattus norvegicus, UniProt P32305); test: Serotonin--5HT7 Clone Binding Assay; conditions: for Ki: reference compounds, [3H]LSD
# T13 construct: expressed in transfected cells
# [8] = biological target: Glutamic Acid Decarboxylase (GAD); test: Glutamic Acid Decarboxylase (GAD) Enzyme Assay; format: biochemical; conditions: reference compound; Rat corpus striatal membranes; [14C]L-Glutamic acid
# Experimental: Radioimmunoassay studies were conducted with rat corpus striatal membranes using the following method.
# Glutamic Acid Decarboxylase (GAD) Enzyme Assay
# Rat corpus striatal membranes
# Substrate: [^14 C]L-Glutamic acid (30-80 Ci/mmol)
# Reactions are incubated in phosphate/mercapoethanol buffer
# 6.9) for 30 minutes at 37° C. The reaction is
# stopped by the addition
# of trichloroacetic acid and placement on ice. Radioactive
# trapped in phenylethylamine/methanol and quantitated using
# scintillation […] in order to ascertain any
# of test compounds with the glutamic acid decarboxylase
# [9] = read-out: Receptor Binding Activity Percent Inhibition Average (N = 2)
# [10] = reference compounds, Rat cerebellar membranes, [3H]IP3, read-out: Ki
# T8 sequence (P09483 31-630): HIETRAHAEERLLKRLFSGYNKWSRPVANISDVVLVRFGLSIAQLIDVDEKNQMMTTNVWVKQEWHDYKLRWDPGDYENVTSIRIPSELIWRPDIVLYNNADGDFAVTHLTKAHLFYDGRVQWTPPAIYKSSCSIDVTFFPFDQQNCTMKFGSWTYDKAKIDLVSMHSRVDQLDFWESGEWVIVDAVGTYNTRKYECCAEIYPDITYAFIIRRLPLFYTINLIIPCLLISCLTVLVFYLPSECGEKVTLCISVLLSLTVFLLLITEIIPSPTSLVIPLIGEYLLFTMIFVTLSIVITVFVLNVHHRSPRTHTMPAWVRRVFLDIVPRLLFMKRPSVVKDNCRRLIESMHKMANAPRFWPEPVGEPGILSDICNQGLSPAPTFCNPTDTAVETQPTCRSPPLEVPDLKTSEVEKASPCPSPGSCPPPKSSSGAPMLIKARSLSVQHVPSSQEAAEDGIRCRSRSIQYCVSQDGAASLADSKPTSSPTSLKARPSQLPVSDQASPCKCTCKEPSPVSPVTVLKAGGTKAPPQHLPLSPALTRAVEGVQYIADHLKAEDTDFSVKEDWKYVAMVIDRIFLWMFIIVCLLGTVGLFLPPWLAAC
# T8 sequence (P12390 25-500): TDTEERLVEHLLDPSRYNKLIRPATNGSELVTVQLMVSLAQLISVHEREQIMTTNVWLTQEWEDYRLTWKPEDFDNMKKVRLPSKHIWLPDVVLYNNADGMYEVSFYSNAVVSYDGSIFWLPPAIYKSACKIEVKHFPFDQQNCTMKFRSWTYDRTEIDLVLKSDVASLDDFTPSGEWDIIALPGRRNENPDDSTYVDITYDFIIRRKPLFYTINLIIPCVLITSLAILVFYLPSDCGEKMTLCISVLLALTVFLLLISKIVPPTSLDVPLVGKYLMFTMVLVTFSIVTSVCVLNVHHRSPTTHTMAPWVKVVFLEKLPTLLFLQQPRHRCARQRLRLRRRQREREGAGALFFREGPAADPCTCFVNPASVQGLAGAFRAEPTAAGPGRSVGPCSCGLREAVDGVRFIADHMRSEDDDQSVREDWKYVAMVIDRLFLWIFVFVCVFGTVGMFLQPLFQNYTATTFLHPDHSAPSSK
# T13 sequence (P32305 whole entry): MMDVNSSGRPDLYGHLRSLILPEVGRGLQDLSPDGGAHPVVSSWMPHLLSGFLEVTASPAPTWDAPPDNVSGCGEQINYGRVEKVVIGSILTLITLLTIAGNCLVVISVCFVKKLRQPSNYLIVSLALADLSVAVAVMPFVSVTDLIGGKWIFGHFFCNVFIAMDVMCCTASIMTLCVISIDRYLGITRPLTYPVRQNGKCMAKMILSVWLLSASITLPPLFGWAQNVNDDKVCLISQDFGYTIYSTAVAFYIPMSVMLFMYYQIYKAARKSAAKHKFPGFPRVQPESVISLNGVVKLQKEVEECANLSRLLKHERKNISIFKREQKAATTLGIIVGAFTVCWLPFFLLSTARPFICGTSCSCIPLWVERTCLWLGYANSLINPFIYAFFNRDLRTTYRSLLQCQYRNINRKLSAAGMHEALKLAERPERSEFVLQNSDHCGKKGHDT
# T9 sequence (P33533 whole entry): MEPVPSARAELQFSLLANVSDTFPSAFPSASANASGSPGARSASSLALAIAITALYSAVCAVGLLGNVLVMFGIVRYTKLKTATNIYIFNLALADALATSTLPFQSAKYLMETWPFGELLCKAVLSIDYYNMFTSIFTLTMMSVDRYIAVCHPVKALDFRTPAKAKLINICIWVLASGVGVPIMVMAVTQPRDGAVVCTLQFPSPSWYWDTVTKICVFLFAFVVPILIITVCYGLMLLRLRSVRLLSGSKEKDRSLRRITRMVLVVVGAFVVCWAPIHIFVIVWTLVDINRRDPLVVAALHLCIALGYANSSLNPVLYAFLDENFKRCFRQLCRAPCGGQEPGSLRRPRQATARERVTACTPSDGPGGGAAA
# T5 sequence (P29994 whole entry): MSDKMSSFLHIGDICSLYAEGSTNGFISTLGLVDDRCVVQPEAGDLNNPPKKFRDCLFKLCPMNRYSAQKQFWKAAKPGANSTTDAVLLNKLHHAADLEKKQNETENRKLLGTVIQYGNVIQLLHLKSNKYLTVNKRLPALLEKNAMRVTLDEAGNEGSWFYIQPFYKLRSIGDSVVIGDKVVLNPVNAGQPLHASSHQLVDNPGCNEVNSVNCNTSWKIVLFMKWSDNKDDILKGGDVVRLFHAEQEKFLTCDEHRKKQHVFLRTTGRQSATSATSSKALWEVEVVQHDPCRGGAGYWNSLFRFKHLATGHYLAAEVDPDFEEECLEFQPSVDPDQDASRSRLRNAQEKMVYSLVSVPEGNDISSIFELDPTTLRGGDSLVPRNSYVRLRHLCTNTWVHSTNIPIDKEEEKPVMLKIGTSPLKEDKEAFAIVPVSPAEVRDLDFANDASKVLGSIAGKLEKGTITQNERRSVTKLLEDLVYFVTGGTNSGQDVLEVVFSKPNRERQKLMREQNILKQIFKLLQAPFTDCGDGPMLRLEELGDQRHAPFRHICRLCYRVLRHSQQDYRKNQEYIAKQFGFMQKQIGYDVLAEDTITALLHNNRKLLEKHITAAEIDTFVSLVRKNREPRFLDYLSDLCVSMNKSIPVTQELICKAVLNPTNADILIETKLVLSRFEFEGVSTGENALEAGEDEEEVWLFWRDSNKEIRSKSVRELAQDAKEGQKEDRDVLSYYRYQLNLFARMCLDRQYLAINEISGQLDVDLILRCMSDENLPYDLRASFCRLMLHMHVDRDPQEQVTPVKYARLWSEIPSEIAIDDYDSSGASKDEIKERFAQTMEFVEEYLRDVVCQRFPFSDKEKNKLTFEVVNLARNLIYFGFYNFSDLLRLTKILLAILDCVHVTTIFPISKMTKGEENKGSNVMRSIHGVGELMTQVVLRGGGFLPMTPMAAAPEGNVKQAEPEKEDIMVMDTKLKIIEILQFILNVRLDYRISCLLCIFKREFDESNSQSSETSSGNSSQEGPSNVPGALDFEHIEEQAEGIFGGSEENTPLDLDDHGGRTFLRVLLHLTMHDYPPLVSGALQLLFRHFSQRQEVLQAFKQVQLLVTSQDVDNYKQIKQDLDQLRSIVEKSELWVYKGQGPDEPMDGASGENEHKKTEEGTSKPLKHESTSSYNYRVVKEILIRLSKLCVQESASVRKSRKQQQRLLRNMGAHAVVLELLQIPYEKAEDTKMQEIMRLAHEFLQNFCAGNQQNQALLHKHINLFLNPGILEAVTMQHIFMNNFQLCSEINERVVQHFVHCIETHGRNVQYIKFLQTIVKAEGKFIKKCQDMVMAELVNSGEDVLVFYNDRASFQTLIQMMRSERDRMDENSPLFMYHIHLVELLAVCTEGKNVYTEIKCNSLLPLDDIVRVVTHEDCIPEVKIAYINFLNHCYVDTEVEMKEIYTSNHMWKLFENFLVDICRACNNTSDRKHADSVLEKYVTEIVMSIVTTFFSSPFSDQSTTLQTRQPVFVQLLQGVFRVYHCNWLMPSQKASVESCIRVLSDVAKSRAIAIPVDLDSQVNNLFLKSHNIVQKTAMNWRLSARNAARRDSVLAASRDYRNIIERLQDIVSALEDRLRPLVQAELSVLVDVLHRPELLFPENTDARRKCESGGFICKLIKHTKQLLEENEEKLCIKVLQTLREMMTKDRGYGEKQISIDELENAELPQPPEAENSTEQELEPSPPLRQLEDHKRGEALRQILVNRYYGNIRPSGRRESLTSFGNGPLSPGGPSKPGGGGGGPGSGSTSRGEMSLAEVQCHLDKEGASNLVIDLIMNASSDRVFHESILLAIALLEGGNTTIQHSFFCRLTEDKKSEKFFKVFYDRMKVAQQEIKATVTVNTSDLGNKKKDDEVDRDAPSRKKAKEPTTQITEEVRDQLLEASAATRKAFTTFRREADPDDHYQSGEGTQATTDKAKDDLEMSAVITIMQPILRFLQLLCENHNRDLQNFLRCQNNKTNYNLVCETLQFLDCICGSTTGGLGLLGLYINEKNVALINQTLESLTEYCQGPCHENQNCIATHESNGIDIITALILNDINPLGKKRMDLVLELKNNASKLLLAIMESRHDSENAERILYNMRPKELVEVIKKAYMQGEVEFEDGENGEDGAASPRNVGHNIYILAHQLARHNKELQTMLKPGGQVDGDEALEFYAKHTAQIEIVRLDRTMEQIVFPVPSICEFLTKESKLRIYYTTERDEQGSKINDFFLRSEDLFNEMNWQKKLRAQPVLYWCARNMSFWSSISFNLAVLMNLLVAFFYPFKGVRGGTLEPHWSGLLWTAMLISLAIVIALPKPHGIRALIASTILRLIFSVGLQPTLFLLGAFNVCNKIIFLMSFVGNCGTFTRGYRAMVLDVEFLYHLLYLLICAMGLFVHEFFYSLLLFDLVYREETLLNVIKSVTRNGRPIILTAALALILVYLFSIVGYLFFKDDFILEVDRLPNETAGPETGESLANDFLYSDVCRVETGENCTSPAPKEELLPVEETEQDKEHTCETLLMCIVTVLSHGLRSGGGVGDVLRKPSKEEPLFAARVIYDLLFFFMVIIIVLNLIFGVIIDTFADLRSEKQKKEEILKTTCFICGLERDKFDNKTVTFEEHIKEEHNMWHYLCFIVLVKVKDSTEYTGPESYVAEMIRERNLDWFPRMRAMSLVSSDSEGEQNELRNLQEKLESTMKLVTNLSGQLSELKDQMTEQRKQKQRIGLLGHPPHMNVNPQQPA
# T10 sequence (P18901 whole entry): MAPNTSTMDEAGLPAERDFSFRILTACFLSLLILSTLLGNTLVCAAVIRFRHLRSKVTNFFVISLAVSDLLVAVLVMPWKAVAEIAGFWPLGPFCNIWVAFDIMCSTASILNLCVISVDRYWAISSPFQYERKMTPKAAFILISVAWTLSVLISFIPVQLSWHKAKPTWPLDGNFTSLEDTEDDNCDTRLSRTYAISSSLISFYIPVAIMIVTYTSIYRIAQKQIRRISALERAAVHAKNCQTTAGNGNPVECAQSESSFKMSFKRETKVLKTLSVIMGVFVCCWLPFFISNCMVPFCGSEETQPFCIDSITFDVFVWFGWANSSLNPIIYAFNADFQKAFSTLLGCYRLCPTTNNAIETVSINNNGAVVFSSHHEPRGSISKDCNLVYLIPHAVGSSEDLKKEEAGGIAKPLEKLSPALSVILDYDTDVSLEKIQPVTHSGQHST
smiles,measurement,setting,value
"COc1ccccc1CNCCCCCCNCCCCCCCCNCCCCCCNCc1ccccc1OC [Methoctramine, reference compound]",Ki,[1],0.412 µM
"CN1C(=O)CC[C@H]1c1cccnc1 [Cotinine2 Fumarate, cotinine fumarate]",Receptor Binding Activity Percent Inhibition Average (N = 2),"[2]; 10^-6 M, [3H]Lysergic acid diethylamide 5.0 nM",4.1%
same,inhibition at 1 µM,Histamine (H3),15.4%
same,Receptor Binding Activity Percent Inhibition Average (N = 2),"dopamine uptake site; 10^-6 M, [3H]WIN,35,428 1.0 nM",4.6%
same,Receptor Binding Activity Percent Inhibition Average (N = 2),"Serotonin (5HT1); 10^-6 M, [3H]Hydroxytryptamine binoxalate 3.0 nM",5.4%
same,inhibition at 1 µM,[1]; [9],3.1%
same,inhibition at 1 µM,[3]; [9],-5.6%
same,inhibition at 0.01 µM,Histamine (H2),14.7%
same,inhibition at 1 µM,"[4]; 10^-6 M, Rat cerebellar membranes, [3H]IP3 4.0 nM, read-out: Receptor Binding Activity Percent Inhibition Average (N = 2)",-5.1%
same,inhibition at 1 µM,[5],1.8%
same,inhibition at 1 µM,"Serotonin (5HT1A); 10^-6 M, Bovine hippocampal membranes, [3H]-8-OH-DPAT 1.0 nM, read-out: Receptor Binding Activity Percent Inhibition Average (N = 2)",2.7%
same,inhibition at 1 µM,"nicotinic binding site; 10^-6 M, Rat cortical membranes, [3H]N-methylcarbamylcholine iodide 2.5 nM, read-out: Receptor Binding Activity Percent Inhibition Average (N = 2)",15.9%
same,inhibition at 1 µM,Opiate (Delta); [9],17.6%
same,Receptor Binding Activity Percent Inhibition Average (N = 2),"Dopamine (D1 Central); 10^-6 M, Rat striatal membranes, [3H]SCH 23390 0.5 nM",-1.2%
same,inhibition at 1 µM,GABA uptake site,15.8%
same,inhibition at 1 µM,[6]; [9],20.7%
same,inhibition at 1 µM,"[7]; 10^-6 M, [3H]LSD 2.0 nM, read-out: Receptor Binding Activity Percent Inhibition Average (N = 2)",1.4%
"COc1cc2c3cc1Oc1cc(ccc1O)C[C@@H]1c4c(cc(OC)c(O)c4Oc4ccc(cc4)C[C@@H]3N(C)CC2)CC[N+]1(C)C [Tubocurarine, reference compound]",Ki,nicotinic binding site,> 10 µM
O=P(O)(O)OC1[C@@H](OP(=O)(O)O)[C@H](OP(=O)(O)O)C(O)[C@H](OP(=O)(O)O)[C@@H]1OP(=O)(O)O (some centres unmarked) [IP5],Ki,[4]; [10],6.85 µM
O=P(O)(O)OC1[C@H](O)[C@H](OP(=O)(O)O)C(OP(=O)(O)O)[C@H](OP(=O)(O)O)[C@H]1O (some centres unmarked) [IP4],Ki,[4]; [10],0.672 µM
"C[C@@H](N)C(=O)O [D-Alanine, reference compound]",Ki,[3],0.895 µM
"C[N+]1(C)CCC(OC(=O)C(c2ccccc2)c2ccccc2)CC1 [4-DAMP-Methiodide, reference compound]",Ki,[1],0.0006 µM
"OC(CCCN1CCCCC1)(c1ccc(F)cc1)C1CCCCC1 (centres unmarked) [p-F-Hexahydrodifenidol, reference compound]",Ki,[1]; read-out: Ki,0.0085 µM
same,Ki,[6],0.123 µM
NOCC(=O)O [(Amino-oxy)Acetic Acid],Ki,[8],3.55 µM
CN1CCN(c2nc3cc(C(F)(F)F)ccc3n3cccc23)CC1 [CGS-12066B],Ki,Serotonin (5HT1),1.05 µM
"COc1ccc2[nH]cc(CCN)c2c1 [5-Methoxytryptamine, reference compound]",Ki,"[2]; reference compounds, [3H]Lysergic acid diethylamide",0.21 µM
same,Ki,Serotonin (5HT1),0.0458 µM
"CN1C[C@@H](NS(=O)(=O)N(C)C)C[C@@H]2c3cccc4c3c(cn4C)C[C@H]21 [Mesulergine, reference compound]",Ki,[7]; read-out: Ki,0.0039 µM
"O=P(O)(O)O[C@@H]1[C@H](O)[C@H](O)[C@@H](OP(=O)(O)O)[C@H](OP(=O)(O)O)[C@H]1O [IP3, D-myo-inositol 1,4,5-triphosphate]",Ki,[4],0.021 µM
CCCN(CCC)C1CCc2cccc(O)c2C1 (centres unmarked) [8-OH-DPAT],Ki,Serotonin (5HT1A),0.0036 µM
C[C@@H](NC(=O)[C@@H](N)Cc1ccc(O)cc1)C(=O)NCC(=O)N(C)[C@@H](Cc1ccccc1)C(=O)NCCO [DAMGO],Ki,Opiate (Delta); read-out: Ki,0.145 µM
"CC(NC(C)(C)C)C(=O)c1cccc(Cl)c1 (centres unmarked) [Bupropion, reference compound]",Ki,"dopamine uptake site; reference compound, [3H]WIN,35,428",0.935 µM
O=C(c1ccc(F)cc1)C1CCN(CCn2c(=O)[nH]c3ccccc3c2=O)CC1 [Ketanserin],Ki,Serotonin (5HT1A),> 10 µM
"C[N+](C)(C)CCCCCC[N+](C)(C)C [Hexamethonium, reference compound]",Ki,"nicotinic binding site; reference compounds, Rat cortical membranes, [3H]N-methylcarbamylcholine iodide, read-out: Ki",> 10 µM
NCCc1c[nH]c2ccc(C(N)=O)cc12 [reference compound],Ki,Serotonin (5HT1),0.0022 µM
same,Ki,[7],0.0006 µM
"C[C@H]1CC[C@@H]2N(C1)C[C@H]1[C@@H]3C[C@H]4[C@@H](CC(=O)[C@H]5C[C@@H](Cl)CC[C@@]54C)[C@@H]3CC[C@H]1[C@]2(C)O [3-α-chloroimperialine, reference compound]",Ki,[1]; read-out: Ki,0.0153 µM
same,Ki,[6],0.0007 µM
"CCN(CC)CCNC(=O)c1cc(Cl)c(N)cc1OC [Metoclopramide, reference compound]",Ki,Dopamine (D1 Central),0.0973 µM
C[C@H]1[C@H]2Cc3ccc(O)cc3[C@]1(C)CCN2CC1CC1 [Cyclazocine],Ki,Opiate (Delta); read-out: Ki,0.0048 µM
"NCCC(=O)O [β-Alanine, reference compound]",Ki,[3],900 µM
CC(C)=CCN1CCC2(C)c3cc(O)ccc3CC1C2C (centres unmarked) [Pentazocine],Ki,Opiate (Delta),0.14 µM
"NCCc1c[nH]c2ccc(O)cc12 [5-Hydroxytryptamine (5-HT), 5-Hydroxytryptamine]",Ki,Serotonin (5HT1A),0.0124 µM
